# Target: T1, human iGluR4 (Homo sapiens, UniProt P48058)
# T1 construct: expressed in transfected cells; host or cells: HEK293
# Assay: Whole-cell voltage clamp potentiation of glutamate-evoked current in HEK293 cells stably expressing human iGluR4
# Type: cell-based
# Settings: whole-cell voltage clamp at −60 mV, potentiation of current evoked by 1 mM glutamate, Hill equation fit
# Text: HEK293 cells stably expressing human iGluR4(obtained as described in European Patent Application Publication No. EP-A1-0583917) are used in the electrophysiological characterization of AMPA receptor potentiators. The extracellular recording solution contains (in mM): 140 NaCl, 5 KCl, 10 HEPES, 1 MgCl2, 2 CaCl2, 10 glucose, pH=7.4 with NaOH, 295 mOsm kg−1. The intracellular recording solution contains (in mM): 140 CsCl, 1 MgCl2, 10 HEPES, (N-[2-hydroxyethyl]piperazine-N1-[2-ethanesulfonic acid]) 10 EGTA (ethylene-bis(oxyethylene-nitrilo)tetraacetic acid), pH=7.2 with CsOH, 295 mOsm kg−1. With these solutions, recording pipettes have a resistance of 2-3 MΩ. Using the whole-cell voltage clamp technique (Hamill et al. (1981) Pflügers Arch., 391: 85-100), cells are voltage-clamped at −60 mV and control current responses to 1 mM glutamate are evoked. Responses to 1 mM glutamate are then determined in the presence of test compound. Compounds are deemed active in this test if, at a test concentration of 10 μM or less, they produce a greater than 10% increase in the value of the current evoked by 1 mM glutamate.
# In order to determine the potency of test compounds, the concentration of the test compound, both in the bathing solution and co-applied with glutamate, is increased in half log units until the maximum effect was seen. Data collected in this manner are fit to the Hill equation, yielding an EC50 value, indicative of the potency of the test compound. Reversibility of test compound activity is determined by assessing control glutamate 1 mM responses. Once the control responses to the glutamate challenge are re-established, the potentiation of these responses by 100 μM cyclothiazide is determined by its inclusion in both the bathing solution and the glutamate-containing solution. In this manner, the efficacy of the test compound relative to that of cyclothiazide can be determined.
# T1 sequence (P48058 21-902): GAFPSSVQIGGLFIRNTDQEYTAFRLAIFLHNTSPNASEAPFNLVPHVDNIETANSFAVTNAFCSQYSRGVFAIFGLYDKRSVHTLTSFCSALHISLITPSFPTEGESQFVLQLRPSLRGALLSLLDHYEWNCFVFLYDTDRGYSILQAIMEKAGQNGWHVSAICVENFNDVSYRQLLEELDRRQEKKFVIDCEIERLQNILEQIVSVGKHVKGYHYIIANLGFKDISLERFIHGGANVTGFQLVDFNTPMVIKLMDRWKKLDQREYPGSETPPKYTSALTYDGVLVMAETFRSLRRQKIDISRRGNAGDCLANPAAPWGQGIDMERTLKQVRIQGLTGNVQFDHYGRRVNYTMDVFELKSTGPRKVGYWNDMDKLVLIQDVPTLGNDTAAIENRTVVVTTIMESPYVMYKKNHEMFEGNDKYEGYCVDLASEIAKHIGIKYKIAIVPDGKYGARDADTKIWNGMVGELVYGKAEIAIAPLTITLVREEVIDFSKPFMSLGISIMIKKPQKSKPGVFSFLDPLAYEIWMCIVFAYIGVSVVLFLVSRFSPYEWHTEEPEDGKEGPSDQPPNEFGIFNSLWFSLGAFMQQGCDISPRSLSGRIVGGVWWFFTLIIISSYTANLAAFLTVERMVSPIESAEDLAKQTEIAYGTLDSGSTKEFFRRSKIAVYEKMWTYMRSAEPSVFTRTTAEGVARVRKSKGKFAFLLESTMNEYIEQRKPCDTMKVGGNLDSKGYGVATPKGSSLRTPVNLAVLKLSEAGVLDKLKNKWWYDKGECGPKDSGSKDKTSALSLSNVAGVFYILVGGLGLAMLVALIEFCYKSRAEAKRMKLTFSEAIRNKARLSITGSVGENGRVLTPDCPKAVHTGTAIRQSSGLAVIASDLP
row,Compound,EC50
1,"CC(C)S(=O)(=O)Nc1ccsc1-c1ccc(-c2cc(F)c(O)c(F)c2)cc1 [Example 11, Propane-2-sulfonic acid [2-(3′,5′-difluoro-4′-hydroxy-biphenyl-4-yl)-thiophen-3-yl]-amide]",0.72 µM
2,"CC(C)S(=O)(=O)Nc1ccsc1-c1ccc(-c2ccc(C(=O)O)cc2C#N)cc1 [Example 72, 2-Cyano-4′-[3-(propane-2-sulfonylamino)-thiophen-2-yl]-biphenyl-4-carboxylic acid]",0.188 µM
3,"COc1cc(C(=O)O)ccc1-c1ccc(-c2ccccc2NS(=O)(=O)C(C)C)cc1 [Example 46, 2″-Methoxy-2-(propane-2-sulfonylamino)-[1,1′;4′,1″]terphenyl-4″-carboxylic acid]",0.977 µM
4,"CC(C)S(=O)(=O)Nc1cnccc1-c1ccc(-c2ccc(C(=O)O)cc2C#N)cc1 [Example 51, 2-Cyano-4′-[3-(propane-2-sulfonylamino)-pyridin-4-yl]-biphenyl-4-carboxylic acid]",2.46 µM
5,"CC(C)S(=O)(=O)Nc1ccsc1-c1ccc(-c2cc(F)c(O)c(F)c2C#N)cc1 [Example 56, Propane-2-sulfonic acid [2-(2′-cyano-3′,5′-difluoro-4′-hydroxy-biphenyl-4-yl)-thiophen-3-yl]-amide]",0.151 µM
